Measurements taken from US20210261553A1, “FUSED TETRAZOLES AS LRRK2 INHIBITORS” (E-SCAPE Bio, Inc., priority 2018, published 2021).

What was measured:
[1] = molecular target: T1, Recombinant wild type LRRK2 protein (Homo sapiens, UniProt Q5S007); assay: LRRK2 kinase activity assay (LanthaScreen TR-FRET), wild type; format: biochemical; details: 400 nM LRRKtide, 25 μM ATP, 60 min at room temperature; read-out: LRRK2 WT IC50
T1 construct: purchased Life Technologies PR8604B
Procedure: (§1) LRRK2 kinase activity was measured using a LanthaScreen™ Kinase Activity Assay from ThermoFisher Scientific. Recombinant wild type or G2019S-LRRK2 protein (Life Technologies, PR8604B or PV4881, respectively), was incubated with a fluorescein-labeled peptide substrate called LRRKtide that is based upon ezrin/radixin/moesin (ERM) (Life Technologies, PV4901) in the presence of ATP and serially diluted compound. After an incubation period of 1 hr, the phosphotransferase activity was stopped and a terbium-labelled anti-pERM antibody (Life Technologies, PV4899) was added to detect the phosphorylation of LRRKtide by measuring the time resolved-Forster resonant energy transfer (TR-FRET) signal from the terbium label on the antibody to the fluorescein tag on LRRKtide, expressed as the 520 nm/495 nm emission ratio. Compound-dependent inhibition of the TR-FRET signal was used to generate a concentration-response curve for IC50 determination.
(§2) The assay was carried out under the following protocol conditions: 1 mM compound in DMSO was serially diluted 1:3, 11 points in DMSO with a Biomek FX and 0.1 μL of the diluted compound was subsequently stamped into the assay plate (384-well format Lumitrac 200, Greiner, 781075) with an Echo Labcyte such that the final compound concentration in the assay was 10 μM to […]. Subsequently, 5 μL of 2× kinase solution (2.9 nM final concentration) was added to the assay plate in assay buffer composed of 50 mM Tris pH 8.5 (Sigma, T6791), 5 mM MgCl2 (Fluka, 63020), 1 mM EGTA (Sigma, E3889), 0.01% BRU-35 (Sigma, P1254) and 2 mM DTT. The reaction was started by addition of 2×ATP/LRRKtide solution in assay buffer such that the final concentration was 400 nM LRRKtide and 25 μM ATP. After 60 min incubation at room temperature, the reaction was stopped by addition of […] containing a final concentration of 2 nM anti-pERM antibody and […]. After a 30 min incubation at RT, the TR-FRET signal was measured on a Wallac 2104 EnVision® multilabel reader at an excitation wavelength of 340 nm and reading emission at 520 nm and 495 nm. The ratio of the 520 nm and 495 nm emission was used to analyze the data.

[2] = molecular target: T2, Recombinant G2019S-LRRK2 protein (Homo sapiens, UniProt Q5S007, G2019S); assay: LRRK2 kinase activity assay (LanthaScreen TR-FRET), G2019S mutant; format: biochemical; details: 400 nM LRRKtide, 25 μM ATP, 60 min at room temperature
T2 construct: purchased Life Technologies PV4881
T2 sequence (Q5S007 970-2527 G2019S limits assumed): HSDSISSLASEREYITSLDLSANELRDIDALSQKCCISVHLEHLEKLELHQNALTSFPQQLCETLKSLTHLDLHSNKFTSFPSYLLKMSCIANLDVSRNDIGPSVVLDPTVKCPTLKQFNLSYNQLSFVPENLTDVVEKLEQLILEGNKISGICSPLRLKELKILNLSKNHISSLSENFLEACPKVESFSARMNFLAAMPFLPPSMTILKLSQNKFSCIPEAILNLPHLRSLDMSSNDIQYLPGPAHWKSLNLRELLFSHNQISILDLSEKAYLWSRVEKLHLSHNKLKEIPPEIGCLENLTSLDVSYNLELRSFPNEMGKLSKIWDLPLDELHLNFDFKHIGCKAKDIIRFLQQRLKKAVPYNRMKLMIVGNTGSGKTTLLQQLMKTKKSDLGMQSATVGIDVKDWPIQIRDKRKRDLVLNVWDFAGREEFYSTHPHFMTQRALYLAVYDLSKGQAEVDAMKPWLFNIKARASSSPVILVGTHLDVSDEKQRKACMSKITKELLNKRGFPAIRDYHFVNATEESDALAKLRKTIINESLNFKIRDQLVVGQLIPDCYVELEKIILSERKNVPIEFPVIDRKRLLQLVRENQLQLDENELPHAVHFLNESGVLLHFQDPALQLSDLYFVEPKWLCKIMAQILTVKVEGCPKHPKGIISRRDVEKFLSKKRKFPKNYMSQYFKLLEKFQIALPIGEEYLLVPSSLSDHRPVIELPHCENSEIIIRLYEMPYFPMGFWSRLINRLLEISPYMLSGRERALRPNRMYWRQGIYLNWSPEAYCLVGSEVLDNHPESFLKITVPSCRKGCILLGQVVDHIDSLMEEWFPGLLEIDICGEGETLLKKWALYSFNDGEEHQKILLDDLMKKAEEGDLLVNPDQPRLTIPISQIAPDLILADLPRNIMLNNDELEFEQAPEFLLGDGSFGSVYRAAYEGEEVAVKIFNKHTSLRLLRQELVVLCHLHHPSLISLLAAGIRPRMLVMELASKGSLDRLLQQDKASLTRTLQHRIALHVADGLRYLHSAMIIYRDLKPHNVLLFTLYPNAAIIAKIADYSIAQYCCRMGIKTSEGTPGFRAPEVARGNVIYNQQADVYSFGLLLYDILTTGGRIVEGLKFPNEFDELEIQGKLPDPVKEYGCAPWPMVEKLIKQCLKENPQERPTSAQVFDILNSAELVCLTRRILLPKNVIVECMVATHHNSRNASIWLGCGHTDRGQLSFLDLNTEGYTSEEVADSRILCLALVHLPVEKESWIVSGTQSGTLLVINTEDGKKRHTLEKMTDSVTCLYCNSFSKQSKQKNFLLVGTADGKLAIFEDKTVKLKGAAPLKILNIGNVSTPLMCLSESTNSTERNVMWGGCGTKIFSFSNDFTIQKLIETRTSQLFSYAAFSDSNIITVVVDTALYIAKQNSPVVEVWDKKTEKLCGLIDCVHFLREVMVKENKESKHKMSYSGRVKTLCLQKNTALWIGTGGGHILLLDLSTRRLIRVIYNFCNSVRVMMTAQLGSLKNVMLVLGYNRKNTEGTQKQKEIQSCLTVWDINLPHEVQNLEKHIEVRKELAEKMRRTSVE
Procedure: as §1, §2

T1 sequence (Q5S007 whole entry): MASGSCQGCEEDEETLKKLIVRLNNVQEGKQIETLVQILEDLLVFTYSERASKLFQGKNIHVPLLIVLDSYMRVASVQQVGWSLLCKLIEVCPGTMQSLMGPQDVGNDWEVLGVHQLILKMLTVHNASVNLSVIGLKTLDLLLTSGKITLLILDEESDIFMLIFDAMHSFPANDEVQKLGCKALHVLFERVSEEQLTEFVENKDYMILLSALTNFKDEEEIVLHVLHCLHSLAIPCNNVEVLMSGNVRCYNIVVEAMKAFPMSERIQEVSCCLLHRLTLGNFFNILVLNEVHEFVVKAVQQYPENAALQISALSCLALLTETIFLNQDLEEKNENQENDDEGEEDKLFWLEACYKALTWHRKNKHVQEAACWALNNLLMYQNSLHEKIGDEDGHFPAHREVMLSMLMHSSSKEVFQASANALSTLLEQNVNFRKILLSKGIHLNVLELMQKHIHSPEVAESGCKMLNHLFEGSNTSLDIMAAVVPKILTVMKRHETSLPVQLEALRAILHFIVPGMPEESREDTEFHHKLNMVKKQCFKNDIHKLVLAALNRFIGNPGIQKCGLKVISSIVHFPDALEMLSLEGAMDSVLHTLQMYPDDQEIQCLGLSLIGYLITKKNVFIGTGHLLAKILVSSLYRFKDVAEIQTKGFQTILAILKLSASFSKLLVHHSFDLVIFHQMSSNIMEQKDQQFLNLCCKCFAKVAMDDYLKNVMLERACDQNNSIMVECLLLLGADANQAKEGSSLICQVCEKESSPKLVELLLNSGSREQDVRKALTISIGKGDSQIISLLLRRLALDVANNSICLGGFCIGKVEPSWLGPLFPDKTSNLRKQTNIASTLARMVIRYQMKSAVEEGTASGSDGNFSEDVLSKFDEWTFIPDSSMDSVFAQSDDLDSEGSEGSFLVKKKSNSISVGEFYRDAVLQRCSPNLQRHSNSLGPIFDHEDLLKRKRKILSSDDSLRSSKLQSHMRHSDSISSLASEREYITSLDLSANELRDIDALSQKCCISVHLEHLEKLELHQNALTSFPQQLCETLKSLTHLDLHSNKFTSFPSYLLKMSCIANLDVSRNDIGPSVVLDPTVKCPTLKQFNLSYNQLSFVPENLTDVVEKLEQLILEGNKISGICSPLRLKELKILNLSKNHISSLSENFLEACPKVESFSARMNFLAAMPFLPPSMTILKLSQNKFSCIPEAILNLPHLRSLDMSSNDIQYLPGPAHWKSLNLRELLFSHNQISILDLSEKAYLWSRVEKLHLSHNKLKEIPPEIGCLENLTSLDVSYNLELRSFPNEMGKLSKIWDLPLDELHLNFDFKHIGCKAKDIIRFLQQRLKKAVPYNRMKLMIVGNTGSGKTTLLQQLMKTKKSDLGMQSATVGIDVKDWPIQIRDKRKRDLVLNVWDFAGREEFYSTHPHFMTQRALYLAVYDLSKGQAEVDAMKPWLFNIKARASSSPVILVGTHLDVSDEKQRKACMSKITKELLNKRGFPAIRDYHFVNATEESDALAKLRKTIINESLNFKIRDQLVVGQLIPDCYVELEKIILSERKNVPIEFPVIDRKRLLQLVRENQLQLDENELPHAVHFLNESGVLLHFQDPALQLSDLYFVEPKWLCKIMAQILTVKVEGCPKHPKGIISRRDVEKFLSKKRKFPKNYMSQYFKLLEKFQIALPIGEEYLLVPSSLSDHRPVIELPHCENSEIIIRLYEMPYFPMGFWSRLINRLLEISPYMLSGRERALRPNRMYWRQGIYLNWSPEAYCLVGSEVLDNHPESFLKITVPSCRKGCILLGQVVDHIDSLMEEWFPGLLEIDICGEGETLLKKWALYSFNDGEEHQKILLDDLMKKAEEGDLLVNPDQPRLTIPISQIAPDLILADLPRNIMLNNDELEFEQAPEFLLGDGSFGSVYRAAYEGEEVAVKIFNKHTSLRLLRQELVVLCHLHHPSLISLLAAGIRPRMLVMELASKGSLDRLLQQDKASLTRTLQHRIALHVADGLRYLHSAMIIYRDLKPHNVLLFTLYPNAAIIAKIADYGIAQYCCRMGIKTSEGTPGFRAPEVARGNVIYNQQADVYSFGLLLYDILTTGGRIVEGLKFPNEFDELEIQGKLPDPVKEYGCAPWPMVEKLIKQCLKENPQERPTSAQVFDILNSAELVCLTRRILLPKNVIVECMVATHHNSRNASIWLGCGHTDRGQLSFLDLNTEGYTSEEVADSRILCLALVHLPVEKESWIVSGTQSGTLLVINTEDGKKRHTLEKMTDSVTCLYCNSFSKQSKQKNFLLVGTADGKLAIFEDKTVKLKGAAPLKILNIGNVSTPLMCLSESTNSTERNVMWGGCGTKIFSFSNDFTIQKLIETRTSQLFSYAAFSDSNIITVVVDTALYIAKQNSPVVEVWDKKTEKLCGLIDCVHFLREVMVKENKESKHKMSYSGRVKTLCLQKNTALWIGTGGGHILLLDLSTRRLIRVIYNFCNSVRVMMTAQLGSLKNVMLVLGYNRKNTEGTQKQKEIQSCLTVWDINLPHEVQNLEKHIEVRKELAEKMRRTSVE

IC50 [1]	IC50 [2]	SMILES
1000 to 10000 nM	100 to 1000 nM	CC1=C(C(=O)Nc2ccc3n[nH]c(NC(=O)Cc4ccc(N(C)C)cc4)c3c2)Cn2nnnc2N1C [Example 52, N-(3-(2-(4-(Dimethylamino)phenyl)acetamido)-2H-indazol-5-yl)-4,5-dimethyl-4,7-dihydrotetrazolo[1,5-a]pyrimidine-6-carboxamide]
100 to 1000 nM	≤ 100 nM	CC1=C(C(=O)Nc2ccc3c(N)nccc3c2)[C@@H](C)n2nnnc2N1C [Example 42, (R)—N-(1-Aminoisoquinolin-6-yl)-4,5,7-trimethyl-4,7-dihydrotetrazolo[1,5-a]pyrimidine-6-carboxamide]
> 10000 nM	> 10000 nM	CC1=C(C(=O)Nc2ccc3c(c2)C(C)(C)NC3=O)[C@@H](C)n2nnnc2N1C [Example 49, (R)—N-(3,3-Dimethyl-1-oxoisoindolin-5-yl)-4,5,7-trimethyl-4,7-dihydrotetrazolo[1,5-a]pyrimidine-6-carboxamide]
1000 to 10000 nM	100 to 1000 nM	CC1=C(C(=O)Nc2cnc3n[nH]cc3c2)C(C)n2nnnc2N1C (stereo not shown) [Example 16, 4,5,7-trimethyl-N-(2H-pyrazolo[3,4-b]pyridin-5-yl)-4,7-dihydrotetrazolo[1,5-a]pyrimidine-6-carboxamide]
100 to 1000 nM	≤ 100 nM	CC1=C(C(=O)Nc2ccc3[nH]ncc3c2)Cn2nnnc2N1C [Example 1, N-(1H-Indazol-5-yl)-4,5-dimethyl-4H,7H-[1,2,3,4]tetrazolo[1,5-a]pyrimidine-6-carboxamide]
100 to 1000 nM	≤ 100 nM	CC1=C(C(=O)Nc2ccc3[nH]nc(C)c3c2)C(C)(C)n2nnnc2N1C [Example 60, 4,5,7,7-Tetramethyl-N-(3-methyl-2H-indazol-5-yl)-4,7-dihydrotetrazolo[1,5-a]pyrimidine-6-carboxamide]
1000 to 10000 nM	≤ 100 nM	CC1=C(C(=O)Nc2ccc3[nH]c(=O)n(C)c3c2)[C@@H](C)n2nnnc2N1C [Example 47, (R)-4,5,7-Trimethyl-N-(3-methyl-2-oxo-2,3-dihydro-1H-benzo[d]imidazol-5-yl)-4,7-dihydrotetrazolo[1,5-a]pyrimidine-6-carboxamide]
≤ 100 nM	≤ 100 nM	CC1=C(C(=O)Nc2ccc3n[nH]c(Br)c3c2)[C@@H](C)n2nnnc2N1C [Example 22, (7R)—N-(3-bromo-2H-indazol-5-yl)-4,5,7-trimethyl-4,7-dihydrotetrazolo[1,5-a]pyrimidine-6-carboxamide]
≤ 100 nM	≤ 100 nM	CC1=C(C(=O)Nc2ccc3[nH]nc(-c4ccncc4)c3c2)[C@@H](C)n2nnnc2N1C [Example 27, (R)-4,5,7-trimethyl-N-(3-(pyridin-4-yl)-1H-indazol-5-yl)-4,7-dihydrotetrazolo[1,5-a]pyrimidine-6-carboxamide]
> 10000 nM	> 10000 nM	COC(=O)c1c(NC(=O)C2=C(C)N(C)c3nnnn3C2)ccc2n[nH]cc12 [Example 61, Methyl 5-(4,5-dimethyl-4,7-dihydrotetrazolo[1,5-a]pyrimidine-6-carboxamido)-2H-indazole-4-carboxylate]
≤ 100 nM	≤ 100 nM	CC1=C(C(=O)Nc2ccc3[nH]nc(Br)c3c2)Cn2nnnc2N1C [Example 10, N-(3-Bromo-1H-indazol-5-yl)-4,5-dimethyl-4,7-dihydrotetrazolo[1,5-a]pyrimidine-6-carboxamide]
